The values below are quoted from earlier work in PubChem BioAssay AID1259409 (Chemical Carcinogenesis Research Information System (CCRIS), 2018).

For the data set, the system named is rodent chemically induced tumor inhibition, incidence and multiplicity. Nature of the data set: CCRIS tumor inhibitor studies. Particulars: Dose [Inhibitor]: 0, Route [Inhibitor]: ORAL, Promoter: NONE USED.

As for `CC(C)=CCC/C(C)=C/C=C/C(C)=C/C=C/C(C)=C/C=C/C=C(C)/C=C/C=C(C)/C=C/C=C(\C)CCC=C(C)C`, the “tumour outcome (control, treated, inhibition, significance)” value is recorded as 11/16 (69%), 11/16 (69%), 0%, not significant (Carcinogen: DIETHYLNITROSAMINE, 55-18-5, N-METHYL-N-NITROSOUREA, 684-93-5, 1,2-DIMETHYLHYDRAZINE, 306-37-6, Carcinogen: DIETHYLNITROSAMINE, 55-18-5, N-METHYL-N-NITROSOUREA, 684-93-5, 1,2-DIMETHYLHYDRAZINE, 306-37-6, 25 PPM IN DRINKING WATER FOR 21 WK BEGINNING 2 WK POST CARCINOGEN TREATMENT (STUDY DURATION: 32 WK), Species: MOUSE, Strain/Sex: B6C3F1/MALE, Target Tissue: Type of Lesion: LUNG: ADENOMA, Dose [Carcinogen]: 10 MG/KG BW DEN ON DAYS 11 AND 32 OF AGE, 120 PPM MNU IN DRINKING WATER FROM WKS 4 TO 9, 20 MG/KG BW DMH 2/WK FOR 5 WK); 1/16 (6%), 2/16 (13%), -116%, not significant (Carcinogen: DIETHYLNITROSAMINE, 55-18-5, N-METHYL-N-NITROSOUREA, 684-93-5, 1,2-DIMETHYLHYDRAZINE, 306-37-6, Carcinogen: DIETHYLNITROSAMINE, 55-18-5, N-METHYL-N-NITROSOUREA, 684-93-5, 1,2-DIMETHYLHYDRAZINE, 306-37-6, 25 PPM IN DRINKING WATER FOR 21 WK BEGINNING 2 WK POST CARCINOGEN TREATMENT (STUDY DURATION: 32 WK), Species: MOUSE, Strain/Sex: B6C3F1/MALE, Target Tissue: Type of Lesion: LUNG: CARCINOMA, Dose [Carcinogen]: 10 MG/KG BW DEN ON DAYS 11 AND 32 OF AGE, 120 PPM MNU IN DRINKING WATER FROM WKS 4 TO 9, 20 MG/KG BW DMH 2/WK FOR 5 WK); 6/16 (38%), 8/15 (53%), -39%, not significant (Carcinogen: DIETHYLNITROSAMINE, 55-18-5, N-METHYL-N-NITROSOUREA, 684-93-5, 1,2-DIMETHYLHYDRAZINE, 306-37-6, Carcinogen: DIETHYLNITROSAMINE, 55-18-5, N-METHYL-N-NITROSOUREA, 684-93-5, 1,2-DIMETHYLHYDRAZINE, 306-37-6, 50 PPM IN DRINKING WATER FOR 21 WK BEGINNING 2 WK POST CARCINOGEN TREATMENT (STUDY DURATION: 32 WK), Species: MOUSE, Strain/Sex: B6C3F1/FEMALE, Target Tissue: Type of Lesion: LUNG: ADENOMA, Dose [Carcinogen]: 10 MG/KG BW DEN ON DAYS 11 AND 32 OF AGE, 120 PPM MNU IN DRINKING WATER FROM WKS 4 TO 9, 20 MG/KG BW DMH 2/WK FOR 5 WK); 11/16 (69%), 3/16 (19%), 72%, p<0.02 (Carcinogen: DIETHYLNITROSAMINE, 55-18-5, N-METHYL-N-NITROSOUREA, 684-93-5, 1,2-DIMETHYLHYDRAZINE, 306-37-6, Carcinogen: DIETHYLNITROSAMINE, 55-18-5, N-METHYL-N-NITROSOUREA, 684-93-5, 1,2-DIMETHYLHYDRAZINE, 306-37-6, 50 PPM IN DRINKING WATER FOR 21 WK BEGINNING 2 WK POST CARCINOGEN TREATMENT (STUDY DURATION: 32 WK), Species: MOUSE, Strain/Sex: B6C3F1/MALE, Target Tissue: Type of Lesion: LUNG: ADENOMA, Dose [Carcinogen]: 10 MG/KG BW DEN ON DAYS 11 AND 32 OF AGE, 120 PPM MNU IN DRINKING WATER FROM WKS 4 TO 9, 20 MG/KG BW DMH 2/WK FOR 5 WK); 1/16 (6%), 0/16 (0%), 100%, not significant (Carcinogen: DIETHYLNITROSAMINE, 55-18-5, N-METHYL-N-NITROSOUREA, 684-93-5, 1,2-DIMETHYLHYDRAZINE, 306-37-6, Carcinogen: DIETHYLNITROSAMINE, 55-18-5, N-METHYL-N-NITROSOUREA, 684-93-5, 1,2-DIMETHYLHYDRAZINE, 306-37-6, 50 PPM IN DRINKING WATER FOR 21 WK BEGINNING 2 WK POST CARCINOGEN TREATMENT (STUDY DURATION: 32 WK), Species: MOUSE, Strain/Sex: B6C3F1/MALE, Target Tissue: Type of Lesion: LUNG: CARCINOMA, Dose [Carcinogen]: 10 MG/KG BW DEN ON DAYS 11 AND 32 OF AGE, 120 PPM MNU IN DRINKING WATER FROM WKS 4 TO 9, 20 MG/KG BW DMH 2/WK FOR 5 WK); 10/12 (83%), 10/12 (83%), 0%, not significant (Carcinogen: N-BUTYL-N-(4-HYDROXYBUTYL)NITROSAMINE, 3817-11-6, 0.0025% IN DRINKING WATER FOR 12 WK BEGINNING POST CARCINOGEN TREATMENT (STUDY DURATION: 20 WK), Species: RAT, Strain/Sex: F344/MALE, Target Tissue: Type of Lesion: URINARY BLADDER: TRANSITIONAL CELL CARCINOMA, Dose [Carcinogen]: 0.05% IN DRINKING WATER FOR 8 WK). Besides, the “tumour outcome (control, treated, inhibition, significance)” value by setting is: (Carcinogen: N-METHYLNITROSAUREA, 684-93-5, 17 PPM IN TOMATO JUICE AND WATER (1:2) AS DRINKING FLUID FOR DURATION OF STUDY (STUDY DURATION: 35 WK), Species: RAT, Strain/Sex: F344/FEMALE, Target Tissue: Type of Lesion: COLON: TUMOR, Dose [Carcinogen]: 0.4% (0.5 ML) AQUEOUS SOLUTION 3/WK FOR 3 WK) 13/24 (54%), 5/24 (21%), 61%, p<0.02; (Carcinogen: N-METHYLNITROSOUREA, 684-93-5, 3.4 PPM IN TOMATO JUICE AND WATER (1:14) AS DRINKING FLUID FOR DURATION OF STUDY (STUDY DURATION: 35 WK), Species: RAT, Strain/Sex: F344/FEMALE, Target Tissue: Type of Lesion: COLON: TUMOR, Dose [Carcinogen]: 0.8% (0.5 ML) AQUEOUS SOLUTION 3/WK FOR 3 WKS) 21/25 (84%), 18/25 (72%), 14%, not significant; (Carcinogen: N-METHYLNITROSOUREA, 684-93-5, 17 PPM IN DRINKING WATER FOR DURATION OF STUDY (STUDY DURATION: 35 WK), Species: RAT, Strain/Sex: F344/FEMALE, Target Tissue: Type of Lesion: COLON: TUMOR, Dose [Carcinogen]: 0.4% (0.5 ML) AQUEOUS SOLUTION 3/WK FOR 3 WK) 13/24 (54%), 8/24 (33%), 39%, not significant; (Carcinogen: N-METHYLNITROSOUREA, 684-93-5, 17 PPM IN TOMATO JUICE AND WATER (1:2) AS DRINKING FLUID FOR DURATION OF STUDY (STUDY DURATION: 35 WK), Species: RAT, Strain/Sex: F344/FEMALE, Target Tissue: Type of Lesion: COLON: TUMOR, Dose [Carcinogen]: 0.8% (0.5 ML) AQUEOUS SOLUTION 3/WK FOR 3 WK) 21/25 (84%), 10/25 (40%), 52%, p<0.01.
